Data reported in patent publication US6974801B2, “Inhibitors and methods of use thereof” (The Trustees of Dartmounth College, priority 2002, dated 2005).
Read-outs that look alike come from different tables or passages of the source.

Columns and labels:
[1] = system: NO production induced by INF-γ in mouse macrophages; details: previously reported (Honda et al.); read-out: IC50 (level); cited from earlier work
[2] = system: NO production induced by INF-γ in mouse macrophages; assay: Inhibition of NO production induced by IFN-γ in mouse macrophages (Griess reaction); format: cell-based
Description: The procedure for determining IC50 on NO production induced by INF-γ in mouse macrophages is as follows. Macrophages were harvested from female mice injected intraperitoneally four days previously with 4% thioglycollate. These cells were seeded in 96-well tissue culture plates and incubated with 4 ng/mL INF-γ in the presence or absence of inhibitory test compounds. After 48 hours NO production, measured as […] by the Griess reaction, was determined. This method is described fully by Ding et al. (1990) and Bogdan and Ding, (1992).

[3] = system: human tumor cell lines, mouse 3T3-L1 fibroblasts, mouse macrophages; details: cell culture; previously reported (Suh et al., 1999); cited from earlier work
[4] = target: T1, peroxisome proliferator-activated receptor γ (PPARγ) (Homo sapiens, UniProt P37231); details: Wang et al., 2000; cited from earlier work
T1 sequence (P37231 1-505): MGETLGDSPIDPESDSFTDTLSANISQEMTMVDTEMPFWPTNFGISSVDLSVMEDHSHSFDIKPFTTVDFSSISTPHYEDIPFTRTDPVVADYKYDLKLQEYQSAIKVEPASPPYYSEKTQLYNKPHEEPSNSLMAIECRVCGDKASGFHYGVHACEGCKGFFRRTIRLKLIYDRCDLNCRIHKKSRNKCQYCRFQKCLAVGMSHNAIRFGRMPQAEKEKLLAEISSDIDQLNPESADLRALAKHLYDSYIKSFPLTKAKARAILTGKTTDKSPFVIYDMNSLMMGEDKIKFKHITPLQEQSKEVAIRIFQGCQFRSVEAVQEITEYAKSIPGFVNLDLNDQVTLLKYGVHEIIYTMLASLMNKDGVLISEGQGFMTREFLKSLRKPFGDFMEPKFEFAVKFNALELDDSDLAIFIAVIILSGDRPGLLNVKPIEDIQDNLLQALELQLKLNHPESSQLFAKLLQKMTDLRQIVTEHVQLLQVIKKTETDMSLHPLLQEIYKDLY

[5] = Mus musculus, Macrophage, 48 h, Table 1; NO production induced by IFN-γ; tested 0.01 pM-1 μM (10-fold dilutions); average of several separate experiments
[6] = Mus musculus, Macrophage; Table 1; NO production induced by IFN-γ, 48 h; tested 0.01 pM-1 μM (10-fold dilutions); average of several separate experiments
[7] = SAR on substituents at C-17, Tables 1-3
[8] = Mus musculus, Macrophage; Table 2; NO production induced by IFN-γ, 48 h; tested 0.01 pM-1 μM (10-fold dilutions); average of several separate experiments

COC(=O)[C@]12CCC(C)(C)C[C@H]1[C@H]1C(=O)C=C3[C@@]4(C)C=C(C#N)C(=O)C(C)(C)[C@@H]4CC[C@@]3(C)[C@]1(C)CC2 [CDDO methyl ester]
IC50 [1]: ~0.1 nM

CC1(C)CC[C@]2(C(=O)O)CC[C@]3(C)[C@H](C(=O)C=C4[C@@]5(C)C=C(C#N)C(=O)C(C)(C)[C@@H]5CC[C@]43C)[C@@H]2C1 [CDDO, 2-cyano-3,12-dioxooleana-1,9(11)-dien-28-oic acid]
IC50 [1]: ~0.1 nM
IC50 [2, 5]: 0.44 nM
IC50 ([2]; Mus musculus, Macrophage, 48 h, Table 3; NO production induced by IFN-γ; tested 0.01 pM-1 μM (10-fold dilutions); average of several separate experiments): 0.7 nM
concentrations at which potencies were found [3]: 10^−6 to 10^−9 M
ligand for PPARγ [4]: ligand

CC1(C)CC[C@]2(C#N)CC[C@]3(C)[C@H](C(=O)C=C4[C@@]5(C)C=C(C#N)C(=O)C(C)(C)[C@@H]5CC[C@]43C)[C@@H]2C1 [Compound 1, 2-cyano-3,12-dioxooleana-1,9(11)-dien-28-onitrile]
IC50 [2, 6]: 0.0035 nM
potency compared with CDDO (SAR statement) [2, 7]: much more potent

CC(=O)OC[C@H]1OC(OC(=O)[C@]23CCC(C)(C)CC2C2C(=O)C=C4[C@@]5(C)C=C(C#N)C(=O)C(C)(C)[C@@H]5CC[C@@]4(C)[C@]2(C)CC3)[C@H](OC(C)=O)C(OC(C)=O)[C@@H]1OC(C)=O (stereo partly shown) [Compound 2]
IC50 [2, 6]: 0.07 nM

CC1(C)CC[C@]2(C(N)=O)CC[C@]3(C)[C@H](C(=O)C=C4[C@@]5(C)C=C(C#N)C(=O)C(C)(C)[C@@H]5CC[C@]43C)[C@@H]2C1 [Compound 3]
IC50 [2, 6]: 0.098 nM
potency compared with CDDO (SAR statement) [2, 7]: greater potency than CDDO

Cc1cn(C(=O)[C@]23CCC(C)(C)CC2C2C(=O)C=C4[C@@]5(C)C=C(C#N)C(=O)C(C)(C)[C@@H]5CC[C@@]4(C)[C@]2(C)CC3)cn1 (stereo partly shown) [Compound 10, 1-(2-cyano-3,12-dioxooleana-1,9(11)-dien-28-oyl)-4-methylimidazole]
potency compared with CDDO (SAR statement) [2, 7]: greatest potency

CCc1nccn1C(=O)[C@]12CCC(C)(C)CC1C1C(=O)C=C3[C@@]4(C)C=C(C#N)C(=O)C(C)(C)[C@@H]4CC[C@@]3(C)[C@]1(C)CC2 (stereo partly shown) [Compound 11]
IC50 [2, 8]: 0.1 nM

CCCc1nccn1C(=O)[C@]12CCC(C)(C)CC1C1C(=O)C=C3[C@@]4(C)C=C(C#N)C(=O)C(C)(C)[C@@H]4CC[C@@]3(C)[C@]1(C)CC2 (stereo partly shown) [Compound 12]
IC50 [2, 8]: 0.02 nM

Cc1cn(C(=O)[C@]23CCC(C)(C)CC2C2C(=O)C=C4[C@@]5(C)C=C(C#N)C(=O)C(C)(C)[C@@H]5CC[C@@]4(C)[C@]2(C)CC3)c(C)n1 (stereo partly shown) [Compound 13]
IC50 [2, 8]: 0.1 nM

CC1(C)CC[C@]2(C(=O)n3ccnc3-c3ccccc3)CC[C@]3(C)C(C(=O)C=C4[C@@]5(C)C=C(C#N)C(=O)C(C)(C)[C@@H]5CC[C@]43C)C2C1 (stereo partly shown) [Compound 14]
IC50 [2, 8]: 0.05 nM

CC1(C)CC[C@]2(C(=O)n3cnc(Br)c3)CC[C@]3(C)C(C(=O)C=C4[C@@]5(C)C=C(C#N)C(=O)C(C)(C)[C@@H]5CC[C@]43C)C2C1 (stereo partly shown) [Compound 15]
IC50 [2, 8]: 0.03 nM

CC(=O)OC[C@H]1O[C@@H](OC(=O)[C@]23CCC(C)(C)C[C@H]2[C@H]2C(=O)C=C4[C@@]5(C)C=C(C#N)C(=O)C(C)(C)[C@@H]5CC[C@@]4(C)[C@]2(C)CC3)[C@H](OC(C)=O)C(OC(C)=O)[C@H]1OC(C)=O (stereo partly shown) [Compound 18]
IC50 ([2]; Mus musculus, Macrophage; Table 3; NO production induced by IFN-γ, 48 h; tested 0.01 pM-1 μM (10-fold dilutions); average of several separate experiments): 0.05 nM

C[C@@H]1C[C@H]2[C@@H]3CCC4=CC(=O)C=C[C@]4(C)[C@@]3(F)[C@@H](O)C[C@]2(C)[C@@]1(O)C(=O)CO [Dexamethasone, reference compound]
IC50 [2, 6]: 0.1 nM

CC1(C)CC[C@]2(C(=O)O)CC[C@]3(C)C(=CC[C@@H]4[C@@]5(C)CC[C@H](O)C(C)(C)[C@@H]5CC[C@]43C)[C@@H]2C1 [Oleanolic acid (OA), Oleanolic acid, reference compound]
IC50 [2, 5]: > 40000 nM
IC50 ([2]; Mus musculus, Macrophage, 48 h, Table 2; NO production induced by IFN-γ; tested 0.01 pM-1 μM (10-fold dilutions); average of several separate experiments): > 40000 nM

COC(=O)C12CCC(C)(C)CC1C1C(=O)C=C3C4(C)C=C(C(=O)O)C(=O)C(C)(C)C4CCC3(C)C1(C)CC2 (stereo not shown) [methyl 2-carboxy-3,12-dioxooleana-1,9(11)-dien-28-oate]
IC50 [1]: ~0.1 nM
